According to patent publication US8901138B2, “Sulfoximine substituted quinazolines for pharmaceutical compositions” (Boehringer Ingelheim International GmbH, priority 2012, dated 2014):

target: T1, MNK2a (Homo sapiens, UniProt Q9HBH9); experiment: MNK2a in vitro kinase assay (assay 1), ADP-Glo; assay type: biochemical; conditions: preactivated GST-MNK2a, 20 μM ATP, read-out: MNK2 IC50
T1 construct: made in house
Method: A. MNK2a In Vitro Kinase Assay (Assay 1)
ASSAY SETUP: The inhibition of kinase activity of MNK2a was assessed using preactivated GST-MNK2a. The white, 384-well OptiPlate F plates were purchased from Perkin Elmer. The ADP-Glo Kinase Assay (including ultra pure ATP) was purchased from Promega (V9103). Activated MNK2a was obtained as described in WO2011/104340. The unlabeled eIF4E peptide (NH2-[…]—CONH2) (SEQ ID NO: 1), differing from Seq. ID No. 5 of WO 2011/104340 by the C-terminal —CONH2 group, was purchased from Thermo Fisher Scientific. All other materials were of highest grade commercially available. Compounds are tested in either serial dilutions or single dose concentrations. The compound stock solutions are 10 mM in 100% DMSO The serial compound dilutions are prepared in 100% DMSO followed by 1:27.3 intermediate dilution in assay buffer. The final DMSO concentration in assay will be <3%. In the 384-well plates 3 μl of test compound from the intermediate dilution is mixed with 4 μl of the activated MNK2 enzyme (final concentration of 10 nM) and 4 μl of the peptide (final concentration of 25 μM)/ultra pure ATP (final concentration of 20 μM), all dissolved in assay buffer. This step is followed by an incubation time of 90 min, then 10 μl of ADP Glo reagent are added, followed by 40 min of incubation. Then 20 μl of kinase detection reagent are admixed. The plates are sealed and after an incubation period of 30 min, the luminescence signal is measured in an Envision reader to determine the amount of produced ADP. All incubation steps are performed at room temperature. The assay buffer consists of 20 mM HEPES, 2 mM DTT, 0.01% BSA, 20 mM MgCl2 and 0.1% Pluronic F-127.
Each assay microtiter plate contains wells with vehicle controls instead of compound (1% DMSO in water) as reference for the high signal (100% CTL, high signal), and wells containing a potent MNK2 inhibitor (final 20 μM, 1% DMSO) as reference for low signal (0% CTL, low signal).
The luminescent signal generated is proportional to the ADP concentration produced and is correlated with activated MNK2 activity. The analysis of the data is performed by the calculation of the percentage of ATP consumption of activated MNK2 in the presence of the test compound compared to the consumption of ATP in the presence of activated MNK2 without compound. (RLU(sample)−RLU(low control))*100/(RLU(high value)−RLU(low control)) [RLU=relative luminescence units]
An inhibitor of the MNK2 enzyme will give values between 100% CTL (no inhibition) and 0% CTL (complete inhibition). Values of more than 100% CTL are normally related to compound/sample specific physico-chemical properties (e.g. solubility, light absorbance, fluorescence).
IC50 values based on dose response curves are calculated with the AssayExplorer software.

T1 sequence (Q9HBH9 whole entry): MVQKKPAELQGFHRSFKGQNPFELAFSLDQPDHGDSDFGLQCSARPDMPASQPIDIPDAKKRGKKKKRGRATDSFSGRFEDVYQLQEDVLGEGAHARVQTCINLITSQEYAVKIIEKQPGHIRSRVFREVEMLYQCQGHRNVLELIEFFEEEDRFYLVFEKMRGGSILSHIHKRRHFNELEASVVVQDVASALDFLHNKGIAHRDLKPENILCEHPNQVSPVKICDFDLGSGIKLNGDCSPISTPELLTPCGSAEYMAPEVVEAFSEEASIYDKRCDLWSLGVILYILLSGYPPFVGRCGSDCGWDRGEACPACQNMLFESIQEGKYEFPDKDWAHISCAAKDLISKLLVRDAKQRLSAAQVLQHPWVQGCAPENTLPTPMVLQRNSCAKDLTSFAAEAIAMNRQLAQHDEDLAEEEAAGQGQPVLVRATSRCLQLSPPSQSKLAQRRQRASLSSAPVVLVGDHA

| Compound | IC50 [nM] |
| --- | --- |
| COc1cc(N=S(C)(C)=O)cc2ncnc(Nc3ccc(F)cc3O[C@H]3CCOC3)c12 [Example 5.2] | 2 |
| O=S1(=Nc2cc(Cl)c3c(Nc4ccc(F)cc4O[C@H]4CCOC4)ncnc3c2)CCCC1 [Example 1.8] | 1 |
| COc1cc(N=S2(=O)CCCC2)cc2ncnc(Nc3cccnc3O[C@H]3CC[C@H](O)CC3)c12 [Example 2.18] | 1 |
| CS(C)(=O)=Nc1cc(Cl)c2c(Nc3ccc(F)cc3O[C@H]3CCOC3)ncnc2c1 [Example 1.14] | 1 |
| Cc1cc(N=S(C)(C)=O)cc2ncnc(Nc3ccc(F)cc3OC3COCCOC3)c12 [Example 2.60] | 3 |
| CCS(C)(=O)=Nc1cc(C)c2c(Nc3ccc(F)cc3O[C@H]3CC[C@H](O)CC3)ncnc2c1 (stereo partly shown) [Example 2.22] | 3 |
| COC1CS(=O)(=Nc2cc(C)c3c(Nc4ccc(F)cc4O[C@@H]4CO[C@@H]5CCO[C@@H]54)ncnc3c2)C1 (stereo partly shown) [Example 2.105] | 2 |
| O=S1(=Nc2cc(Cl)c3c(Nc4ccc(F)cc4O[C@@H]4CO[C@@H]5CCO[C@@H]54)ncnc3c2)CCCC1 [Example 1.7] | 1 |
| Cc1cc(N=S(C)(C)=O)cc2ncnc(Nc3ccc(F)cc3O[C@@H]3CCCC[C@@H]3O)c12 [Example 1.39] | 7 |
| Cc1cc(N=S(C)(C)=O)cc2ncnc(Nc3ccc(F)cc3O[C@H]3CC[C@H](O)CC3)c12 [Example 2.71] | 3 |
| CO[C@@H]1CO[C@H]2[C@@H]1OC[C@H]2Oc1cc(F)ccc1Nc1ncnc2cc(N=S3(=O)CCCC3)cc(Cl)c12 [Example 1.13] | 1 |
| Cc1cc(N=S(C)(C)=O)cc2ncnc(Nc3ccc(F)cc3O[C@H]3C[C@H](N)C3)c12 [Example 3.14] | 2 |
| Cc1cc(N=S(C)(C)=O)cc2ncnc(Nc3ccc(F)cc3O[C@@H]3CCN(CC(F)F)C3)c12 [Example 6.14] | 3 |
| CS(C)(=O)=Nc1cc(Br)c2c(Nc3ccc(F)cc3O[C@H]3CCOC3)ncnc2c1 [Example 1.11] | 1 |
| CS(C)(=O)=Nc1cc(Cl)c2c(Nc3cccnc3O[C@H]3CC[C@H](O)CC3)ncnc2c1 [Example 1.16] | 1 |
| COc1cc(N=S2(=O)CCCC2)cc2ncnc(Nc3ccc(F)cc3O[C@H]3CC[C@H](O)CC3)c12 [Example 2.90] | 2 |
| CO[C@H]1CC[C@H](Oc2ncccc2Nc2ncnc3cc(N=S(C)(C)=O)cc(C)c23)CC1 [Example 2.68] | 3 |
| Cc1cc(N=S(C)(C)=O)cc2ncnc(Nc3ccc(F)cc3OC3CCCC3)c12 [Example 2.70] | 2 |
| Cc1cc(N=S2(=O)CCCC2)cc2ncnc(Nc3ccc(F)cc3OC3COCCOC3)c12 [Example 2.25] | 2 |
| CCc1cc(N=S(C)(C)=O)cc2ncnc(Nc3ccc(F)cc3O[C@H]3CCOC3)c12 [Example 7.8] | 9 |
| Cc1cc(N=S2(=O)CCCC2)cc2ncnc(Nc3ccc(F)cc3O[C@@H]3CO[C@H]4[C@@H]3OC[C@@H]4O)c12 [Example 2.83] | 1 |
| CS(C)(=O)=Nc1cc(C(F)(F)F)c2c(Nc3ccc(F)cc3O[C@H]3CCOC3)ncnc2c1 [Example 1.5] | 3 |

| Compound | IC50 [nM] |
| --- | --- |
| CS(C)(=O)=Nc1cc(Cl)c2c(Nc3ccc(F)cc3O[C@@H]3CO[C@H]4[C@@H]3OC[C@@H]4O)ncnc2c1 [Example 1.3] | 1 |
| CS(C)(=O)=Nc1cc(F)c2c(Nc3ccc(F)cc3O[C@H]3CCOC3)ncnc2c1 [Example 2.89] | 3 |
| Cc1cc(N=S(C)(C)=O)cc2ncnc(Nc3ccc(F)cc3OC3CCC(O)C3)c12 (racemic) [Example 4.3] | 3 |
| CO[C@@H]1CO[C@H]2[C@@H]1OC[C@H]2Oc1cc(F)ccc1Nc1ncnc2cc(N=S3(=O)CCCC3)cc(C)c12 [Example 2.43] | 1 |
| Cc1cc(N=S2(=O)CCCC2)cc2ncnc(Nc3ccc(F)cc3OC3CCc4ccccc43)c12 (stereo not shown) [Example 4.6] | 3 |
| Cc1cc(N=S2(=O)CCCC2)cc2ncnc(Nc3ccc(F)cc3O[C@@H]3CO[C@H]4[C@@H]3OC[C@H]4O)c12 [Example 2.36] | 2 |
| Cc1cc(N=S2(=O)CCCC2)cc2ncnc(Nc3ccc(F)cc3O[C@@H]3CO[C@@H]4CCO[C@@H]43)c12 [Example 2.42] | 1 |
| Cc1cc(N=S2(=O)CCCC2)cc2ncnc(Nc3ccc(F)cc3O[C@@H]3CCCN(S(C)(=O)=O)C3)c12 [Example 6.3] | 2 |
| Cc1cc(N=S(C)(C)=O)cc2ncnc(Nc3ccc(F)cc3O[C@@H]3CO[C@@H]4CCO[C@@H]43)c12 [Example 2.39] | 2 |
| Cc1cc(N=S2(=O)CCC(O)C2)cc2ncnc(Nc3ccc(F)cc3O[C@H]3CCOC3)c12 (stereo partly shown) [Example 2.93] | 4 |
| Cc1cc(N=S2(=O)CCCCC2)cc2ncnc(Nc3ccc(F)cc3O[C@H]3CCOC3)c12 [Example 2.78] | 3 |
| COc1cc(N=S2(=O)CCCC2)cc2ncnc(Nc3ccc(F)cc3O[C@@H]3CO[C@H]4[C@@H]3OC[C@H]4OC)c12 [Example 2.9] | 1 |
| CS(C)(=O)=Nc1cc(Cl)c2c(Nc3ccc(F)cc3O[C@@H]3CO[C@H]4[C@@H]3OC[C@H]4O)ncnc2c1 [Example 1.6] | 1 |
| Cc1cc(N=S2(=O)CCCC2)cc2ncnc(Nc3cccnc3O[C@H]3CC[C@H](O)CC3)c12 [Example 2.69] | 2 |
| Cc1cc(N=S(C)(=O)c2ccncc2)cc2ncnc(Nc3ccc(F)cc3O[C@@H]3CO[C@@H]4CCO[C@@H]43)c12 (stereo partly shown) [Example 2.96] | 4 |
| Cc1cc(N=S2(=O)CCCC2)cc2ncnc(Nc3ccc(F)cc3O[C@@H]3CCN(CC(F)F)C3)c12 [Example 6.4] | 2 |
| Cc1cc(N=S(C)(C)=O)cc2ncnc(Nc3ccc(F)cc3O[C@@H]3CC[C@H]3O)c12 [Example 1.34] | 3 |
| CS(C)(=O)=Nc1cc(F)c2c(Nc3ccc(F)cc3OC3CCCC3)ncnc2c1 [Example 2.29] | 3 |
| Cc1cc(N=S(C)(C)=O)cc2ncnc(Nc3ccc(F)cc3O[C@@H]3CCOC3)c12 [Example 2.5] | 3 |
| Cc1cc(N=S(C)(C)=O)cc2ncnc(Nc3ccc(F)cc3O[C@H]3CC[C@@](C)(O)CC3)c12 [Example 2.74] | 3 |
| CO[C@H]1CC[C@H](Oc2cc(F)ccc2Nc2ncnc3cc(N=S4(=O)CCCC4)cc(C)c23)CC1 [Example 2.48] | 2 |
